Assay results published in patent publication US6514914B1, “Inhibition of phospholipase D” (priority 1999, dated 2003).
Entries after “also recorded” stand apart in the source; their conditions may differ. Read-outs that look alike come from different tables or passages of the source.

Columns and labels:
[1] = system: microsomal PLD of sweet corn kernel; assay: Phospholipase D activity by release of radiolabelled choline, microsomal fraction; assay type: biochemical, Zea mays
Experimental: (§1) Protein Extraction. Sweet corn (Zea mays L. cv Peaches and Cream) was used for this study. The kernels were obtained locally from a grocery store and stored frozen at −20° C. until it was used for protein extraction. Frozen kernels were homogenized in 0.1 m Tris-HCl buffer at pH 7.5 essentially as described by Pinhero et al. (1998), except that sucrose was not included in the homogenizing buffer. The mitochondrial, microsomal and the cytosolic fractions were collected by differential centrifugation (Pinhero et al., 1998). The fraction comprising the starch granules was removed by centrifuging the samples at 2500×g for 10 minutes. The resulting supernatant was subjected to centrifugation at 15,000×g to pellet the mitochondrial membrane fraction (Edwards and Gardestrom, 1987). The supernatant from this step was centrifuged at 105,000×g to pellet the microsomal membranes. The supernatant comprising the cytosol was subjected to ammonium sulphate fractionation at 30 and 60% saturation. The precipitated protein was collected by centrifugation at 15000×g and redissolved in 10 mM Tris-HCl pH 7.0 and dialyzed overnight with the same buffer, also containing 0.1 mM DTT, with two changes of 2 L each. Protein concentration was determined by the method of Bradford (1976) using bovine serum albumin as a standard. All steps of protein extraction procedure were carried out at 4° C.
(§2) Enzyme Assay. PLC activity was determined as described by Pinhero et al. (1998) by measuring the release of radiolabelled choline from L3-phosphatidyl(N-methyl-^3H) choline,1,2-dipalmitoyl at 23° C. The basic assay mixture contained 0.1 M Tris-HCl (pH 7.5), 0.2 mM EGTA, membrane or cytosol protein (2.5 μg), and approximately 100,000 dpm of choline-labelled phosphatidylcholine in 0.1% (v/v) Triton-X 100 (0.01% final), to make a total volume of 1 ml. To study the regulation of PLD by alcohols, aldehydes and metal ions, the appropriate amounts of the reagent solutions were added to the basic reaction mixture. Similarly, citrate and Tris-HCl buffers were used to study the effect of pH on PLD activity. The reaction was terminated after 10 minutes by adding 100 μL of 4 N HCl followed by 1 mL of chloroform/methanol (2:1, v/v) and left overnight. The amount of [^3H]choline released during the reaction was determined by mixing a 0.5 ml aliquot of the aqueous phase directly into 5 ml of scintillation fluid (Ecolume, ICN) and determining the amount of radiolabel using a Beckman LS 6800 Scintillation counter (Beckman Instruments Inc.).

[2] = system: mitochondrial PLD of sweet corn kernel; assay: Phospholipase D activity by release of radiolabelled choline, mitochondrial fraction; assay type: biochemical, Zea mays
Experimental: as §1, §2

[3] = system: cytosolic PLD of sweet corn kernel; assay: Phospholipase D activity by release of radiolabelled choline, cytosolic fraction; assay type: biochemical, Zea mays
Experimental: as §1, §2

[4] = system: phospholipase D in sweet corn kernel; assay: Phospholipase D activity by release of radiolabelled choline, fractions not distinguished; assay type: biochemical, Zea mays; details: sweet corn kernel preparations, fraction not specified
Experimental: Protein Extraction. Sweet corn (Zea mays L. cv Peaches and Cream) was used for this study. The kernels were obtained locally from a grocery store and stored frozen at −20° C. until it was used for protein extraction. […] The fraction comprising the starch granules was removed by centrifuging the samples at 2500×g for 10 minutes. […] The supernatant from this step was centrifuged at 105,000×g to pellet the microsomal membranes. The supernatant comprising the cytosol was subjected to ammonium sulphate fractionation at 30 and 60% saturation. The precipitated protein was collected by centrifugation at 15000×g and redissolved in 10 mM Tris-HCl pH 7.0 and dialyzed overnight with the same buffer, also containing 0.1 mM DTT, with two changes of 2 L each. […] All steps of protein extraction procedure were carried out at 4° C.
as §2, with “PLC activity was determined as described by Pinhero et al. (1998) by measuring the release of radiolabelled choline from L3-phosphatidyl(N-methyl-^3H) choline,1,2-dipalmitoyl at 23° C.” left out
Protein Extraction: Sweet corn (Zea mays L. cv Peaches and Cream) was used for this study. The kernels were obtained locally from a grocery store and stored frozen at −20° C. until used. Frozen kernels were homogenized in 0.1 M Tris-HCl buffer at pH 7.5, containing 1 mM dithiothreitol, I mM phenylmethanesulfonylfluoride, 2 mM EDTA and 1 mM EGTA. The homogenate was filtered through four layers of cheese clothe. After removing the debris, the homogenate was subjected to differential centrifugation to separate mitochondria, microsomes and cytosol. The fraction comprising starch granules was removed by centrifuging the samples at 2500×g for 10 min. The resulting supernatant was subjected to centrifugation at 15000×g to pellet the mitochondrial membrane fraction. The supernatant from this step was centrifuged at 105,000×g to pellet the microsomal membranes. The supernatant was subjected to ammonium sulfate fractionation at 30 and 60% saturation to precipitate the cytosolic proteins. The precipitated proteins were pelleted by centrifugation at 15000×g and dissolved in 10 mM Tris HCI, pH 7.5, and dialyzed overnight in the same buffer also containing 0.1 mM DTT. Resuspended microsomal, mitochondrial membrane preparation and the cytosolic proteins were stored at −80° C. until used for phospholipase D assays.
Assay for Phospholipase D: Phospholipase D activity was determined by the liberation of choline from choline methyl labelled dipalmitoylphosphatidylcholine [L3-phosphatidyl (N-methyl-3H) choline 1,2-dipalmitoyl]. The basic assay mixture contained 0.1 M. Tris-HCl, pH 7.5, 0.2 mM EGTA, 1-2.5 ug of membrane or cytosolic protein (precipitated at 60% ammonium sulfate saturation) and 100,000 dpm of choline-labelled phosphatidylcholine in 0.1% Triton X-100 (final 0.01%), in a total volume of 1 ml. Hexanal and hexanol was added to the assay mixture and incubated for 5 min prior to the addition of substrate. The reaction was terminated after 10 min by the addition of 100 uL of 4N HCl, followed by 1 ml of chloroform: methanol (2:1 v/v) and left overnight.

PLD = details: animal systems; cited from earlier work
[5] = system: PLD in leaf and root tissues of maize seedlings; details: cited from earlier work
parsley leaves = assay: Parsley leaf senescence, excised leaves incubated in the dark for fourteen days; details: increasing amounts in 2.5 ml water with 0.001% Tween-20, fourteen days in the dark
Experimental: Mature parsley leaves were excised and floated in water to randomize the leaves. After thorough washing 10 leaflets were incubated in petri plates lined with Whatman #1 filter paper and containing 2.5 ml of water containing various amounts of hexanal and 0.001% final Tween −20. Controls with water alone and Tween −20 were also incubated. The petri plates were incubated in the dark for fourteen days. The leaves were removed, chopped to fine pieces, and portions used for protein and pigment analyses. For protein analysis, a known amount of leaf segments (usually 0.6-0.7 g) were ground with 0.1 N NaOH (1 ml). After removing the debris by centrifugation, protein was determined in aliquots, using the dye-binding method by Bradford, 1976. To measure the pigments, leaf segments were extracted with 5 ml of 95% ethanol overnight in the dark. The absorbance readings were measured at […] to estimate chlorophyll a, at 647 nm for chlorophyll b and at […] for carotenoid. The data presented are the mean of two independent estimations from two sets of leaves incubated separately.

phospholipase D = details: reported in plants; cited from earlier work
[6] = alcohol added to the assay mixture
[7] = increasing alcohol in the assay mixture
[8] = acetaldehyde, concentration not stated (discussion)
[9] = 0.2 mM of added calcium (10 μM of free calcium)
[10] = maximal stimulation, at 0.5 mM of added calcium, 0.2 mM EGTA in assay
[11] = maximal stimulation, at 50 μM magnesium chloride

[Cl-].[K+] [KCl, potassium chloride]
effect on microsomal PLD activity ([1]; monovalent salt up to 5 mM): inhibited | effect on mitochondrial PLD activity ([2]; monovalent salt up to 5 mM): nearly similar activity with respect to their respective controls | effect on cytosolic PLD activity ([3]; monovalent salt up to 5 mM): nearly similar activity with respect to their respective controls | effect on PLD activity [4]: did not affect PLD activity substantially; also recorded: did not appear to have any major effects on PLD activity

CCO [ethanol]
effect on microsomal PLD activity [1]: stimulation in the activity | stimulation of microsomal PLD activity [1]: 50% | effect on mitochondrial PLD activity [2, 6]: stimulation in the activity | stimulation of mitochondrial PLD activity ([2]; maximal stimulation, at 0.25% ethanol (v/v)): 100% | effect on cytosolic PLD activity ([3]; ethanol levels above 0.5%): inhibited | effect on cytosolic PLD activity [3, 7]: marginal stimulation initially followed by a decline in activity

[Cl-].[Na+] [sodium chloride]
effect on microsomal PLD activity ([1]; monovalent salt up to 5 mM): remained nearly the same | effect on mitochondrial PLD activity ([2]; monovalent salt up to 5 mM): remained nearly the same | effect on cytosolic PLD activity ([3]; monovalent salt up to 5 mM): remained nearly the same | effect on PLD activity [4]: did not affect PLD activity substantially; also recorded: did not appear to have any major effects on PLD activity

hydroxy hexenal
effect on PLD (PLD): promoters of PLD

n-butanol
effect on microsomal PLD activity [1, 6]: decline in activity | effect on mitochondrial PLD activity [2, 6]: decline in activity | effect on cytosolic PLD activity [3, 7]: decline in activity | effect on PLD activity [4]: marginal

CC=O [acetaldehyde]
inhibition of microsomal PLD activity ([1]; 2% v/v acetaldehyde): 80% | inhibition of microsomal PLD activity [1, 8]: over 75% | inhibition of mitochondrial PLD activity ([2]; 2% v/v acetaldehyde): 80% | inhibition of mitochondrial PLD activity [2, 8]: over 75% | inhibition of cytosolic PLD activity ([3]; 2% v/v acetaldehyde): 80% | inhibition of cytosolic PLD activity [3, 8]: over 75%

CCCCCC=O [hexanal]
effect on PLD activity [4]: potent inhibition of PLD activity; also recorded: effective inhibitors of PLD activity

[Ca+2] [calcium]
stimulation of microsomal PLD activity [1, 9]: ~40% | stimulation of microsomal PLD activity [1, 10]: 40-50% | effect on mitochondrial PLD activity ([2]; 0.5 mM of added calcium, 0.2 mM EGTA in assay): marginal stimulation | stimulation of cytosolic PLD activity [3, 9]: ~40% | stimulation of cytosolic PLD activity [3, 10]: 40-50% | effect on PLD activity [4]: marginally stimulated | effect on PLD activity [5]: not stimulated

CCCO [propanol]
promotion in microsomal PLD activity ([1]; between 0.1 and 1% (v/v) propanol): 20-25% | effect on mitochondrial PLD activity [2, 6]: only a marginal increase | effect on cytosolic PLD activity [3, 7]: initial promotion of cytosolic activity followed by a decline | effect on PLD activity [4]: marginal

CCCCCCO [hexanol]
effect on PLD activity [4]: potent inhibition of PLD activity; also recorded: effective inhibitors of PLD activity | amount of chlorophyll in parsley leaves versus controls (parsley leaves): greater amounts of chlorophyll than controls | senescence or aging of parsley leaves (parsley leaves): less senescence or aging has occurred

Lysophosphatidylethanolamine
inhibition of phospholipase D (phospholipase D): potent inhibitor of phospholipase D

[Cl-].[Cl-].[Mg+2] [magnesium chloride]
stimulation of microsomal PLD activity [1, 11]: ~100% | stimulation of cytosolic PLD activity [3, 11]: ~100% | effect on PLD activity [4]: slightly higher than that of calcium ions | effect on PLD activity [5]: not stimulated
